This is an account of results in patent US12005056B2, “Centrally-active ghrelin agonist and medical uses thereof” (Helsinn Healthcare SA, priority 2018, dated 2024).

In data set [1] the test system is oxaliplatin-treated Balb/C mice. The note with it: oxaliplatin 6 mg/kg i.p. twice weekly for 4 weeks.
Data set [2] is described as follows: Comparative pharmacokinetics versus reference compounds, rat.
A short description of data set [3]: Comparative pharmacokinetics versus reference compounds, dog.
[4] abbreviates: Rat, 2 hours after intravenous administration.
[5] abbreviates: Rat, IV, dosing level 3 mg/kg (level not given for Reference 2).
Where [6] appears, read: Rat, PO, dosing level 3 mg/kg (level not given for Reference 2).
[7] abbreviates: Dog, IV, dosing level 1 mg/kg (level not given for Reference 2).
[8] abbreviates: Dog, PO, dosing level 2 mg/kg (level not given for Reference 2).

As for `O=C1[O][Pt]2([NH][C@@H]3CCCC[C@H]3[NH]2)[O]C1=O` [Oxaliplatin, reference compound], in data set [1], the “decrease in caudal NCV vs. vehicle-treated mice” value was 8±1.1% and the “reduction in IENFD in the footpads vs. vehicle-treated mice” value is listed as −31.7±3.5%. Also, in data set [1] (not statistically significant), the “decrease in digital potential amplitude” value is given as 13.5+/−6.4%.
Consider `COc1ccc([C@H](C)NC(=O)N(O)C2CCN(C)CC2)c2ccccc12` [Reference 2], for which, in data set [2] (setting [4]), the “2 hr brain concentration” value is recorded as 79.6 ng · g and the “2 hr plasma concentration” value was 790.3 ng/mL. In addition, in data set [2] (setting [5]), the “AUC (0-t)” value is 8412.7 ng·h/mL and the CLz/F came to 5 mL/min/kg. In data set [2] (setting [6]), the “AUC (0-t)” value was 6139.8 ng·h/mL, the CLz/F stood at 6.7 mL/min/kg and the F is listed as 73.0%. Further, the Kp at 2 h in data set [2] (rat, brain/plasma, iv) was found to be 0.1. Also, in data set [2] (rat, plasma, iv, 3 mg/kg), the Cmax came out at 1220 ng/mL and the half-life was 5.8 h. In data set [2] (rat, plasma, po, 3 mg/kg), this compound showed a Cmax of 481 ng/mL, a Vd/F of 3.3 L/kg, a half-life of 6.1 h and a tmax of 6 h. Besides, in data set [3] (setting [7]), the “AUC (0-t)” value worked out at 14810.5 ng·h/mL and the CLz/F was found to be 0.67 mL/min/kg. In data set [3] (setting [8]), the “AUC (0-t)” value worked out at 28288.2 ng·h/mL, the CLz/F was found to be 1 mL/min/kg and the F was determined as 95.5%. In data set [3] (dog, in vivo, iv, 1 mg/kg), this compound gave a Cmax of 1520 ng/mL and a half-life of 22.2 h. In data set [3] (dog, in vivo, po, 2 mg/kg), this compound had a Cmax of 2040 ng/mL, a Vd/F of 0.9 L/kg, a half-life of 11.8 h and a tmax of 0.67 h.
As for `COc1ccc(C(C)NC(=O)N(C)C2CCN(C)CC2(C)C)c(Cl)c1Cl` (centres unmarked) [free base, 3-(1-(2,3-dichloro-4-methoxyphenyl)ethyl)-1-methyl-1-(1,3,3-trimethylpiperidin-4-yl)urea], the solubility in the data set “Water solubility testing” was below 2000 µg/mL.
